Experimental data reported in US8324130B2, “Synergistic active ingredient combinations” (Bayer Cropscience AG, priority 2006, dated 2012).

How the values were obtained:
Format in all cases: in vivo
Aphis gossypii = Aphis gossypii test (cotton leaves dipped into active compound preparation)
Procedure: (§1) Solvent: 7 parts by weight of dimethylformamide
(§2) Emulsifier: 2 parts by weight of alkylaryl polyglycol ether
(§3) To produce a suitable preparation of active compound, 1 part by weight of active compound is mixed with the stated amounts of solvent and emulsifier, and the concentrate is diluted with emulsifier-containing water to the desired concentration.
Cotton leaves (Gossypium hirsutum) which are heavily infested by the cotton aphid (Aphis gossypii) are treated by being dipped into the preparation of active compound of the desired concentration.
(§4) After the desired period of time, the kill in % is determined. 100% means that all aphids have been killed; 0% means that none of the aphids have been killed. The kill rates determined are entered into Colby's formula (see page 1).

Myzus persicae = Myzus persicae test (cabbage leaves dipped into active compound preparation)
Procedure: as §1, §2, §3
Cabbage leaves (Brassica oleracea) which are heavily infested by the Green peach aphid (Myzus persicae) are treated by being dipped into the preparation of active compound of the desired concentration.
as §4

Phaedon cochleariae = Phaedon cochleariae test (cabbage leaves dipped, populated with larvae); settings: 200 ppm, larvae on cabbage leaves
Procedure: as §1, §2, §3
After the desired period of time, the kill in % is determined. 100% means that all beetle larvae have been killed; 0% means that none of the beetle larvae have been killed. The kill rates determined are entered into Colby's formula (see page 1).

COCC(=O)N(c1c(C)cccc1C)C(C)C(=O)OC (centres unmarked) [metalaxyl, reference compound]
Kill in % after 1^d (Aphis gossypii; 100 ppm): 10%
Kill in % after 1^d (Myzus persicae; 100 ppm): 0%

O=C1C=C(N(Cc2ccc(Cl)nc2)C2CC2)CO1 [compound (Ib), 4-[[(6-chloropyridin-3-yl)methyl] (cyclopropylamino)]furan-2-(5H)-one]
Kill in % after 1^d (Aphis gossypii; 0.8 ppm): 30%
Kill in % after 6^d (Aphis gossypii; 0.8 ppm): 40%
Kill in % after 1^d (Myzus persicae; 4 ppm): 75%
Kill in % after 3^d (Phaedon cochleariae): 60%

OC(Cc1ccccc1Cl)(Cn1nc[nH]c1=S)C1(Cl)CC1 (centres unmarked) [prothioconazole, reference compound]
Kill in % after 1^d (Myzus persicae; 100 ppm): 0%
Kill in % after 6^d (Myzus persicae; 100 ppm): 0%

CO/N=C(/C(=O)OC)c1ccccc1CO/N=C(\C)c1cccc(C(F)(F)F)c1 [trifloxystrobin, reference compound]
Kill in % after 6^d (Aphis gossypii; 100 ppm): 40%

CN(Cc1ccc(Cl)nc1)C1=CC(=O)OC1 [compound (Ia), 4-[[(6-chloropyridin-3-yl)methyl](methylamino)]furan-2-(5H)-one]
Kill in % after 6^d (Aphis gossypii; 0.16 ppm): 40%
Kill in % after 6^d (Aphis gossypii; 0.8 ppm): 70%
Kill in % after 1^d (Myzus persicae; 0.16 ppm): 0%
Kill in % after 1^d (Myzus persicae; 0.8 ppm): 40%
Kill in % after 6^d (Myzus persicae; 0.8 ppm): 75%

CCCOC(=O)NCCCN(C)C [propamocarb, reference compound]
Kill in % after 3^d (Phaedon cochleariae): 5%

N#Cc1c[nH]cc1-c1cccc2c1OC(F)(F)O2 [fludioxonil, reference compound]
Kill in % after 6^d (Aphis gossypii; 100 ppm): 0%
Kill in % after 1^d (Myzus persicae; 100 ppm): 0%
